Reference: patent US8557839B2, “Fused ring azadecalin glucocorticoid receptor modulators” (Corcept Therapeutics, Inc., priority 2004, dated 2013)

Tests used:
[1] = biological target: T1, mineralocorticoid (MR) receptor (Homo sapiens, UniProt P08235); assay: MR functional assay using T47D/MMTV-5 cells; assay type: cell-based; settings: read-out: inhibition of the MR functional response
T1 construct: containing endogenous mineralocorticoid-(MR) and progesterone (PR) receptors; endogenous in cells; host or cells: T47D/MMTV-5 (human breast carcinoma, stably carrying the pMAMneo-Luc reporter)
T1 sequence (P08235 1-984): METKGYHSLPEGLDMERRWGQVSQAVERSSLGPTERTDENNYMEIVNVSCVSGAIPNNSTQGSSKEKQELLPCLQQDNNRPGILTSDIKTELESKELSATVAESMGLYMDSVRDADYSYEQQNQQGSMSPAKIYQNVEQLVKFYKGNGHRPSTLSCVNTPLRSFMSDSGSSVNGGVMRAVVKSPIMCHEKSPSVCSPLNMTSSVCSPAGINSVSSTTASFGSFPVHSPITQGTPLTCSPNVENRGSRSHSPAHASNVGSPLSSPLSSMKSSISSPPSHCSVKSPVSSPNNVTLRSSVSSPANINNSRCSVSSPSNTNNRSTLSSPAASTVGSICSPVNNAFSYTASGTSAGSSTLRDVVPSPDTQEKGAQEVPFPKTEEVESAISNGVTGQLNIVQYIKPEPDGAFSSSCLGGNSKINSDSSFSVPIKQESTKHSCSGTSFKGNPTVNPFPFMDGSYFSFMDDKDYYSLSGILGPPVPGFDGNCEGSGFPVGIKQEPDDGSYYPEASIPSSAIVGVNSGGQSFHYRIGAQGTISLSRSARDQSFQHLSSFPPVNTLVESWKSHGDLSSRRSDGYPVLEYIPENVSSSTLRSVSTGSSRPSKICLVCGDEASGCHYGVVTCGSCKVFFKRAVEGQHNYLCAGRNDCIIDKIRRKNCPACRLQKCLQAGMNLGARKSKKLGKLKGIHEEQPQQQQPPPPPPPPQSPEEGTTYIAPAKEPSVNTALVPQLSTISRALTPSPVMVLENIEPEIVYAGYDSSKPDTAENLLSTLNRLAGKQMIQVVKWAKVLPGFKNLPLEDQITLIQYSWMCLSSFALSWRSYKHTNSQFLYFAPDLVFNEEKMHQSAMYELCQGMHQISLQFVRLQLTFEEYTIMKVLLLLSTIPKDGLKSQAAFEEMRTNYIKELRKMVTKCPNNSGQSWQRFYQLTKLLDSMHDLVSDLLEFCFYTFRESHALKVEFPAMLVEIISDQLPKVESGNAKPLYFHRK
Description: (§1) As for the SW 1353 cell line, T47D cells was transfected with the same pMAMneo-Luc plasmid, and stable lines selected with geneticin.
(§2) T47D/MMTV-5 cells were distributed in 96-well plates (100 μl) in RPMI1640 medium +10% Charcoal stripped FCS. The cells were incubated for 24 hrs in the CO2-oven. A volume of 100 μl of the compound dilutions in medium +agonist (500 nM aldost; 50 nM progest) were added, and the plates further incubated for another 24 hrs after which the luciferase expression was measured.

[2] = biological target: T2, progesterone (PR) receptor (Homo sapiens, UniProt P06401); assay: PR functional assay using T47D/MMTV-5 cells; assay type: cell-based; settings: read-out: inhibition of the PR agonist response
T2 construct: containing endogenous mineralocorticoid-(MR) and progesterone (PR) receptors; endogenous in cells; host or cells: T47D/MMTV-5 (human breast carcinoma, stably carrying the pMAMneo-Luc reporter)
T2 sequence (P06401 1-933): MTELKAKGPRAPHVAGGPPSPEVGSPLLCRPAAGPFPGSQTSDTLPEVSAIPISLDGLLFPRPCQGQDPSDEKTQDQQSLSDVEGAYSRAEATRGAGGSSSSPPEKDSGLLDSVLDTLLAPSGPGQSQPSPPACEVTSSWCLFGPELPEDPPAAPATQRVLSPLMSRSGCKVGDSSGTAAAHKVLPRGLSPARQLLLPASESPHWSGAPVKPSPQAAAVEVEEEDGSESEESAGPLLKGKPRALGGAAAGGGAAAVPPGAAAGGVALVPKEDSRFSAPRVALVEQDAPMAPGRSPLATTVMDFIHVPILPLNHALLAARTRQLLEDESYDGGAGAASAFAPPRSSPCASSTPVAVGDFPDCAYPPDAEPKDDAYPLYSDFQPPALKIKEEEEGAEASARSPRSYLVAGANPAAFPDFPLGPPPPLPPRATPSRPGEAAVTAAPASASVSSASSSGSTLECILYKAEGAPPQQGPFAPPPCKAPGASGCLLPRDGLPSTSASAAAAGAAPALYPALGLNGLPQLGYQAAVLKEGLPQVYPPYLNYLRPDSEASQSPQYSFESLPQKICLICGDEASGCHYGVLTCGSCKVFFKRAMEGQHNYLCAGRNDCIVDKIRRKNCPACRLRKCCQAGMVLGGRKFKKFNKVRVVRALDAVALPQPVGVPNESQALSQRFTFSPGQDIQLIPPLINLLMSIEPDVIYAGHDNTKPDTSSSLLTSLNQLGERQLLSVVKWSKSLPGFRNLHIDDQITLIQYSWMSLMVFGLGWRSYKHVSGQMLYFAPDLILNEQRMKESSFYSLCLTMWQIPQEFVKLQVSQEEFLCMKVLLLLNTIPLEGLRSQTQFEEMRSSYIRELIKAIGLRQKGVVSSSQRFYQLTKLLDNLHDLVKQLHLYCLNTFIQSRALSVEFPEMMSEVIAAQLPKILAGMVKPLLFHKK
Description: as §1, §2

glucocorticoid receptors [3] = biological target: T3, glucocorticoid receptors (Homo sapiens, UniProt P04150); assay: Glucocorticoid receptor binding displacement assay with 3H-dexamethasone; set-up: This GR was a full-length steroid hormone receptor; host or cells: recombinant baculovirus-infected insect cells
T3 sequence (P04150 1-777): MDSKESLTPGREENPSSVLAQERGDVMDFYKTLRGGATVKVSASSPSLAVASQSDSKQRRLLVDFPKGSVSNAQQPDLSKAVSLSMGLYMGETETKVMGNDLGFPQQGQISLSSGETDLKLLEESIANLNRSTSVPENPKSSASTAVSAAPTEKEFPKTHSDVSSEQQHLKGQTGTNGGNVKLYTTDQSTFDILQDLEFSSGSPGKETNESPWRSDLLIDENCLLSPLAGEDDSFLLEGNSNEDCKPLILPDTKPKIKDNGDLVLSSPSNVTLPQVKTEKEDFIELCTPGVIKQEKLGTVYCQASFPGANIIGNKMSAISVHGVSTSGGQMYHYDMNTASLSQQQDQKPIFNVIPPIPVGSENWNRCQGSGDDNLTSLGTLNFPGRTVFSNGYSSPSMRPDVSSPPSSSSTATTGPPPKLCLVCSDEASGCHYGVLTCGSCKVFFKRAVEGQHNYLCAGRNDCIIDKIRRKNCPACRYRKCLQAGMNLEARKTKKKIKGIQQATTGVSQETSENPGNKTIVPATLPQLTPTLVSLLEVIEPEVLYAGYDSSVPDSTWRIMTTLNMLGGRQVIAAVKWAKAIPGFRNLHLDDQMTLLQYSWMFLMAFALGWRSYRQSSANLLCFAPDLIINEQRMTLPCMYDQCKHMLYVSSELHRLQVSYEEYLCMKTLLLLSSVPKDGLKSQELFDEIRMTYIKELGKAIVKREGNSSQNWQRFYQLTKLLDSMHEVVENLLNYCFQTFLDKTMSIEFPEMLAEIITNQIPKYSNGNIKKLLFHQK

glucocorticoid receptors [4] = biological target: T3, glucocorticoid receptors; assay: GR functional assay using SW1353/MMTV-5 cells (dexamethasone-induced luciferase); assay type: cell-based; set-up: contains endogenous glucocorticoid receptors; endogenous in cells; host or cells: SW1353/MMTV-5 (human chondrosarcoma, stably carrying the pMAMneo-Luc reporter)
Outline: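 Human chondrosarcoma line stably carrying firefly luciferase under an MMTV LTR glucocorticoid-responsive element, with endogenous GR. Cells were plated in 96-well plates and held 24 hrs in geneticin-free medium without CO2.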

[5] = Ki from IC50 by Cheng-Prusoff, 2.5 nM 3H-dexamethasone, read-out: GR Binding

| SMILES | Ki (glucocorticoid receptors [3]; [5]) | Ki (glucocorticoid receptors [4]; read-out: GR Functional) | also measured |
| --- | --- | --- | --- |
| CC(C)(C)c1ccc(S(=O)(=O)N2CCC3=Cc4c(cnn4-c4ccc(F)cc4)C[C@]3(C)C2)cc1 [Example 29, (S)-6-(4-tert-Butyl-benzenesulfonyl)-1-(4-fluoro-phenyl)-4a-methyl-4,4a,5,6,7,8-hexahydro-1H-1,2,6-triaza-cyclopenta[b]naphthalene] |  |  | inhibition at 3 µM [1]: 10%; inhibition at 3 µM [2]: 8% |
| CC(C)(C)c1ccc(S(=O)(=O)N2CCC3=Cc4c(cnn4-c4ccc(F)cc4)C[C@]3(C(=O)NCc3ccccc3)C2)cc1 | 10 to 100 nM | > 100 nM |  |
| CC(C)(C)c1ccc(S(=O)(=O)N2CCC3=Cc4c(cnn4-c4ccc(F)cc4)CC3(Cc3ccc(F)cc3)C2)cc1 (stereo not drawn) |  |  | Ki (glucocorticoid receptors [3]): < 10 nM; Ki (glucocorticoid receptors [4]): 10 to 100 nM |
| CC(C)(C)c1ccc(S(=O)(=O)N2CCC3=Cc4c(cnn4Cc4ccccc4)CC3(Cc3ccccc3)C2)cc1 (stereo not drawn) [drawing 253] | < 10 nM |  | Ki (glucocorticoid receptors [4]; SW1353/MMTV-5 cells, antagonism of 50 nM dexamethasone, luciferase, read-out: GR Functional): > 100 nM |
| CC(C)(C)c1ccc(S(=O)(=O)N2CCC3=Cc4c(cnn4-c4ccc(F)cc4)C[C@]3(CO)C2)cc1 | < 10 nM | 10 to 100 nM |  |
| COC(=O)[C@]12Cc3cnn(C(C)C)c3C=C1CCN(S(=O)(=O)c1ccc(C(C)(C)C)cc1)C2 | 10 to 100 nM | > 100 nM |  |
| CCC(O)[C@]12Cc3cnn(-c4ccc(F)cc4)c3C=C1CCN(S(=O)(=O)c1ccc(C(C)(C)C)cc1)C2 (stereo partly drawn) | < 10 nM | 10 to 100 nM |  |
| CC(C)(C)c1ccc(S(=O)(=O)N2CC[C@H]3Cc4c(cnn4-c4ccc(F)cc4)C[C@]3(CO)C2)cc1 | > 100 nM | > 100 nM |  |
| CC(C)(C)c1ccc(S(=O)(=O)N2CCC3=Cc4c(cnn4-c4ccc(F)cc4)C[C@]3(COCCC#N)C2)cc1 | < 10 nM | < 10 nM |  |
